≈ marks a conversion by molar mass, not a printed value. Read-outs that look alike come from different tables or passages of the source.
Experiments:
[1] = Description: XRPD diffractograms are collected on a Bruker D8 diffractometer using Cu Ka radiation (40 kV, 40 mA) and a 0-20 goniometer fitted with a Ge monochromator. The incident beam passes through a 2.0 mm divergence slit followed by a 0.2 mm anti-scatter slit and knife edge. The diffracted beam passes through an 8.0 mm receiving slit with 2.5° Soller slits followed by the Lynxeye Detector. The software used for data collection and analysis is Diffrac Plus XRD Commander and Diffrac Plus EVA respectively. Samples are run under ambient conditions as flat plate specimens using powder as received. The sample is prepared on a polished, zero-background (510) silicon wafer by gently pressing onto the flat surface or packed into a cut cavity. The sample is rotated in its own plane.
The details of the standard data collection method are: • Angular range: 2 to 42° 20 • Step size: 0.05° 20 • Collection time: 0.5 s/step (total collection time: 6.40 min)

[2] = remark: listed apart in the source
Description: Sorption isotherms are obtained using a Hiden IGASorp moisture sorption analyser, controlled by Isochema HISorp software. The sample temperature is maintained at 25° C. by a Grant LT ecocool 150 re-circulating water bath. The humidity is controlled by mixing streams of dry and wet nitrogen, with a total flow rate of 250 ml/min. The relative humidity is measured by a calibrated Vaisala RH probe (dynamic range of 0-95% RH), located near the sample. The weight change, (mass relaxation) of the sample as a function of % RH is constantly monitored by the microbalance (accuracy±0.001 mg). Typically, 20-30 mg of sample is placed in a tared mesh stainless steel basket under ambient conditions. The sample is loaded and unloaded at 40% RH and 25° C.(typical room conditions). A moisture sorption isotherm is performed as outlined below (2 scans, giving 1 complete cycle). The standard isotherm is performed at 25° C. at 10% RH intervals over a 0-90% RH range.

[3] = 4 hour solubility in buffered media (HPLC quantitation); assay type: physicochemical; settings: thermodynamic from solid, 25° C.
Description: Sufficient sample is suspended in 1.0 ml media for a maximum anticipated concentration of about 10 mg/ml of the free form of the compound. The resulting suspensions are then shaken at 25° C./750 rpm for 4 hours. The pH of the sample solutions is checked after 1 hour to ensure that the desired pH is maintained throughout (+0.2). After equilibration, the appearance is noted, and the final pH of the saturated solution is measured. Samples are then filtered through a glass ‘C’ fibre filter (Particle retention size 1.2 μm), before dilution with buffer as appropriate. Quantitation is by HPLC with reference to a standard solution of approximately 0.15 mg/ml. Different volumes of the standard, diluted and undiluted sample solutions are injected.
The HPLC method for solubility measurements is as follows:
Analysis is performed on an Agilent HP1100/Infinity II 1260 series system equipped with a diode array detector and using OpenLAB software.

In the case of `Nc1ccccc1NC(=O)c1ccc(CNC(=O)OCc2cccnc2)cc1.O=C(O)C=CC(=O)O`, the “stability of crystalline form (no change in form by XRPD)” value ([1]; 40° C./75% RH) is reported as “stable at 40° C./75% RH for at least two weeks”.
With `Nc1ccccc1NC(=O)c1ccc(CNC(=O)OCc2cccnc2)cc1.O=C(O)CCC(=O)O` [Form A of entinostat compound with succinic acid] the “reversible water uptake by GVS” value ([2]; 25° C., 0-90% RH) was ~0.5 wt %, the “post GVS XRPD, change of crystalline form” value ([2]; after GVS cycle) was “no change in crystalline form” and the “time the form remains stable, as evidenced by XRPD” value (“time the form remains stable” for short) ([1]; 25° C./97% RH) was “at least 28 days”. The “time the form remains stable” value ([1]; 40° C./75% RH) was “at least 28 days”.
With `Nc1ccccc1NC(=O)c1ccc(CNC(=O)OCc2cccnc2)cc1.O=C(O)CCC(=O)O` [Form B of entinostat compound with succinic acid] the “time the form remains stable” value ([1]; 40° C./75% RH) was “at least 7 days”.
For `Nc1ccccc1NC(=O)c1ccc(CNC(=O)OCc2cccnc2)cc1.O=C(O)CCC(=O)O` [Form C of entinostat compound with succinic acid], the “time the form remains stable” value ([1]; 40° C./75% RH) was “at least 7 days”.
`Nc1ccccc1NC(=O)c1ccc(CNC(=O)OCc2cccnc2)cc1` [U.S. Pat. No. 7,973,166 Polymorph A, N-(2-aminophenyl)-4-[N-(pyridine-3-yl)-methoxycarbonylamino-methyl]-benzamide] showed a solubility at 4 h ([3]; aqueous buffer, pH 4.5 acetate buffer) of 190 µg/mL (≈ 505 µM), a solubility at 4 h ([3]; aqueous buffer, pH 6.8 phosphate buffer) of 75 µg/mL (≈ 199 µM) and a solubility at 4 h ([3]; aqueous buffer, pH 7.5 phosphate buffer) of 72 µg/mL (≈ 191 µM). The solubility at 4 h ([3]; buffer pH 2.8, aqueous buffer, pH 2.8 buffer) was 5900 µg/mL (≈ 15700 µM) and the solubility at 4 h ([3]; simulated gastric fluid, pH 1.2 hydrochloric acid buffer) was > 7900 µg/mL.

From patent US20240239748A1, “NOVEL FORMS OF ENTINOSTAT” (Macfarlan Smith Limited, priority 2021, published 2024)
